The source of these data is ChEMBL document CHEMBL1130731, “Methyloxime-substituted aminopyrrolidine: a new surrogate for 7-basic group of quinolone” (Bioorg Med Chem Lett, 1998).

In brackets after ≈: the same amount, converted by molar mass.

The first data set has as its system Bacillus subtilis. As to the kind of experiment: In vitro antimicrobial activity against Bacillus subtilis ATCC 6633. It counts as functional.
Conditions: not given
For `NC1CN(c2c(F)cc3c(=O)c(C(=O)O)cn(C4CC4)c3c2F)C/C1=N\OCCF` (stereo unspecified), the MIC stood at 0.016 µg/mL (≈ 0.0377 µM).

As to `CO/N=C1\CN(c2c(F)cc3c(=O)c(C(=O)O)cn(C4CC4)c3c2F)CC1N` (stereo unspecified), the MIC was at most 0.008 µg/mL.

Tested on in a further data set: not listed separately
Nature of the data set: AUC value after administration of 20 mg/Kg oral dose in rat. Conditions: plasma. It counts as ADME, organism-based.
Take `CO/N=C1\CN(c2c(F)cc3c(=O)c(C(=O)O)cn(C4CC4)c3c2F)CC1N` (stereo unspecified): the exposure (AUC) stood at 179000 ng·h/mL.

The next data set deals with Escherichia coli. Nature of the data set: In vitro antimicrobial activity against Escherichia coli 3190Y.
Conditions: not given
It counts as functional.
In turn, `NC1CN(c2c(F)cc3c(=O)c(C(=O)O)cn(C4CC4)c3c2F)C/C1=N\OCCF` (stereo unspecified) came in with an MIC of 0.016 µg/mL (≈ 0.0377 µM).

With `CO/N=C1\CN(c2c(F)cc3c(=O)c(C(=O)O)cn(C4CC4)c3c2F)CC1N` (stereo unspecified), the minimal inhibitory concentration (MIC) was at most 0.008 µg/mL.

Tested on in a further data set: not listed separately
Nature of the data set: Bioavailability in rat (dose 20 mg/kg p.o.). It is filed as ADME, organism-based. To be noted: in vivo, po.
`CO/N=C1\CN(c2c(F)cc3c(=O)c(C(=O)O)cn(C4CC4)c3c2F)CC1N` (stereo unspecified) returned a bioavailability above 100%.

The next data set relates to Klebsiella aerogenes. Nature of the data set: In vitro antimicrobial activity against Klebsiella aerogenes 1076E. It is filed as functional.
Conditions: not given
As to `NC1CN(c2c(F)cc3c(=O)c(C(=O)O)cn(C4CC4)c3c2F)C/C1=N\OCCF` (stereo unspecified), the MIC was determined as 0.25 µg/mL (≈ 0.589 µM).

`CO/N=C1\CN(c2c(F)cc3c(=O)c(C(=O)O)cn(C4CC4)c3c2F)CC1N` (stereo unspecified) came in with an MIC of 0.13 µg/mL (≈ 0.331 µM).

A further data set concerns Enterobacter cloacae. Nature of the data set: In vitro antimicrobial activity against Enterobacter cloacae p99. It is filed as functional.
Conditions: not given
In the case of `NC1CN(c2c(F)cc3c(=O)c(C(=O)O)cn(C4CC4)c3c2F)C/C1=N\OCCF` (stereo unspecified), the MIC came out at 0.016 µg/mL (≈ 0.0377 µM).

Molecule `CO/N=C1\CN(c2c(F)cc3c(=O)c(C(=O)O)cn(C4CC4)c3c2F)CC1N` (stereo unspecified) registered an MIC of at most 0.008 µg/mL.

Tested on in the next data set: not listed separately
As to the kind of experiment: Bioavailability in dog (dose 4 mg/kg p.o.). It counts as ADME, organism-based, Canis lupus familiaris. To be noted: in vivo, po.
For the molecule `CO/N=C1\CN(c2c(F)cc3c(=O)c(C(=O)O)cn(C4CC4)c3c2F)CC1N` (stereo unspecified), the bioavailability was above 100%.

The next data set relates to Citrobacter koseri. Nature of the data set: In vitro antimicrobial activity against Citrobacter diversus 2046E. It is filed as functional.
Conditions: not given
Take `NC1CN(c2c(F)cc3c(=O)c(C(=O)O)cn(C4CC4)c3c2F)C/C1=N\OCCF` (stereo unspecified): the MIC was determined as 0.13 µg/mL (≈ 0.306 µM).

For `CO/N=C1\CN(c2c(F)cc3c(=O)c(C(=O)O)cn(C4CC4)c3c2F)CC1N` (stereo unspecified), the MIC came to 0.063 µg/mL (≈ 0.161 µM).

A further data set relates to Micrococcus luteus. As to the kind of experiment: In vitro antimicrobial activity against Micrococcus luteus ATCC 9341.
Conditions: not given
It is filed as functional.
Molecule `NC1CN(c2c(F)cc3c(=O)c(C(=O)O)cn(C4CC4)c3c2F)C/C1=N\OCCF` (stereo unspecified) came in with an MIC of 0.25 µg/mL (≈ 0.589 µM).

Consider `CO/N=C1\CN(c2c(F)cc3c(=O)c(C(=O)O)cn(C4CC4)c3c2F)CC1N` (stereo unspecified), for which the MIC came out at 0.13 µg/mL (≈ 0.331 µM).

The next data set concerns Staphylococcus aureus. As to the kind of experiment: In vitro antimicrobial activity against Staphylococcus aureus 241. It is filed as functional.
Conditions: not given
In turn, `NC1CN(c2c(F)cc3c(=O)c(C(=O)O)cn(C4CC4)c3c2F)C/C1=N\OCCF` (stereo unspecified) gave a minimal inhibitory concentration (MIC) of 2 µg/mL (≈ 4.71 µM).

The molecule `CO/N=C1\CN(c2c(F)cc3c(=O)c(C(=O)O)cn(C4CC4)c3c2F)CC1N` (stereo unspecified) yielded an MIC of 2 µg/mL (≈ 5.1 µM).

A further data set concerns Escherichia coli. Nature of the data set: In vitro antimicrobial activity against Escherichia coli TEM5 3739E.
Conditions: not given
It is filed as functional.
With `NC1CN(c2c(F)cc3c(=O)c(C(=O)O)cn(C4CC4)c3c2F)C/C1=N\OCCF` (stereo unspecified), the MIC came out at 0.25 µg/mL (≈ 0.589 µM).

In turn, `CO/N=C1\CN(c2c(F)cc3c(=O)c(C(=O)O)cn(C4CC4)c3c2F)CC1N` (stereo unspecified) yielded an MIC of 0.25 µg/mL (≈ 0.637 µM).

Another data set has as its system Staphylococcus aureus. Nature of the data set: In vitro antimicrobial activity against Staphylococcus aureus giorgio. It is filed as functional.
Conditions: not given
`NC1CN(c2c(F)cc3c(=O)c(C(=O)O)cn(C4CC4)c3c2F)C/C1=N\OCCF` (stereo unspecified) gave an MIC of 0.031 µg/mL (≈ 0.073 µM).

The molecule `CO/N=C1\CN(c2c(F)cc3c(=O)c(C(=O)O)cn(C4CC4)c3c2F)CC1N` (stereo unspecified) gave an MIC of at most 0.008 µg/mL.

Another data set relates to Staphylococcus aureus. As to the kind of experiment: In vitro antimicrobial activity against Staphylococcus aureus 77. It is filed as functional.
Conditions: not given
`NC1CN(c2c(F)cc3c(=O)c(C(=O)O)cn(C4CC4)c3c2F)C/C1=N\OCCF` (stereo unspecified) gave an MIC of 0.063 µg/mL (≈ 0.148 µM).

Regarding `CO/N=C1\CN(c2c(F)cc3c(=O)c(C(=O)O)cn(C4CC4)c3c2F)CC1N` (stereo unspecified), the minimal inhibitory concentration (MIC) was 0.016 µg/mL (≈ 0.0408 µM).

Tested on in a further data set: not listed separately
Nature of the data set: Half-life after administration of 4 mg/Kg oral dose in dog. To be noted: in vivo.
`CO/N=C1\CN(c2c(F)cc3c(=O)c(C(=O)O)cn(C4CC4)c3c2F)CC1N` (stereo unspecified) gave a half-life of 2.34 h.

Tested on in another data set: not listed separately
As to the kind of experiment: in vivo. To be noted: dog, po, 4 mg/kg.
On to `CO/N=C1\CN(c2c(F)cc3c(=O)c(C(=O)O)cn(C4CC4)c3c2F)CC1N` (stereo unspecified), for which the Cmax came out at 3440 ng/mL.

A further data set has as its system Pseudomonas aeruginosa. Nature of the data set: In vitro antimicrobial activity against Pseudomonas aeruginosa 1012E. It counts as functional.
Conditions: not given
`NC1CN(c2c(F)cc3c(=O)c(C(=O)O)cn(C4CC4)c3c2F)C/C1=N\OCCF` (stereo unspecified) returned an MIC of 2 µg/mL (≈ 4.71 µM).

Turning to `CO/N=C1\CN(c2c(F)cc3c(=O)c(C(=O)O)cn(C4CC4)c3c2F)CC1N` (stereo unspecified), it took 1 µg/mL (≈ 2.55 µM) to inhibit growth (MIC).

Tested on in a further data set: not listed separately
Nature of the data set: Tmax value after administration of 4 mg/Kg oral dose in dog. It counts as ADME, organism-based, Canis lupus familiaris. Conditions: in vivo.
With `CO/N=C1\CN(c2c(F)cc3c(=O)c(C(=O)O)cn(C4CC4)c3c2F)CC1N` (stereo unspecified), the Tmax was determined as 0.23 h.

Tested on in another data set: not listed separately
Nature of the data set: Cmax value after administration of 20 mg/Kg oral dose in rat. Further details: dose 20 mg/Kg, route oral. Conditions: in vivo. It is filed as ADME, organism-based.
`CO/N=C1\CN(c2c(F)cc3c(=O)c(C(=O)O)cn(C4CC4)c3c2F)CC1N` (stereo unspecified) came in with a Cmax of 22800 ng/mL.

Tested on in another data set: not listed separately
Nature of the data set: Half-life after administration of 20 mg/Kg oral dose in rat. It counts as ADME, organism-based. Conditions: in vivo.
With `CO/N=C1\CN(c2c(F)cc3c(=O)c(C(=O)O)cn(C4CC4)c3c2F)CC1N` (stereo unspecified), the half-life is 5.18 h.

Tested on in the next data set: not listed separately
As to the kind of experiment: Tmax value after administration of 20 mg/Kg oral dose in rat. It is filed as ADME, organism-based. Conditions: in vivo.
Take `CO/N=C1\CN(c2c(F)cc3c(=O)c(C(=O)O)cn(C4CC4)c3c2F)CC1N` (stereo unspecified): the Tmax is 0.18 h.

For a further data set, the system named is Staphylococcus epidermidis. Nature of the data set: In vitro antimicrobial activity against Staphylococcus epidermis 178. It counts as functional.
Conditions: not given
Molecule `NC1CN(c2c(F)cc3c(=O)c(C(=O)O)cn(C4CC4)c3c2F)C/C1=N\OCCF` (stereo unspecified) had an MIC of 2 µg/mL (≈ 4.71 µM).

`CO/N=C1\CN(c2c(F)cc3c(=O)c(C(=O)O)cn(C4CC4)c3c2F)CC1N` (stereo unspecified) came in with a minimum inhibitory concentration (MIC) of 2 µg/mL (≈ 5.1 µM).

A further data set has as its system Salmonella typhimurium. Nature of the data set: In vitro antimicrobial activity against Salmonella Typhimurium 14028. It is filed as functional, Salmonella enterica subsp. enterica serovar Typhimurium. To be noted: Salmonella enterica.
On to `NC1CN(c2c(F)cc3c(=O)c(C(=O)O)cn(C4CC4)c3c2F)C/C1=N\OCCF` (stereo unspecified), for which it took 0.13 µg/mL (≈ 0.306 µM) to inhibit growth (MIC).

`CO/N=C1\CN(c2c(F)cc3c(=O)c(C(=O)O)cn(C4CC4)c3c2F)CC1N` (stereo unspecified) returned an MIC of 0.063 µg/mL (≈ 0.161 µM).

A further data set deals with Escherichia coli. Nature of the data set: In vitro antimicrobial activity against Escherichia coli 851E. It is filed as functional.
Conditions: not given
On to `NC1CN(c2c(F)cc3c(=O)c(C(=O)O)cn(C4CC4)c3c2F)C/C1=N\OCCF` (stereo unspecified), for which inhibition of growth (MIC) required 0.031 µg/mL (≈ 0.073 µM).

Take `CO/N=C1\CN(c2c(F)cc3c(=O)c(C(=O)O)cn(C4CC4)c3c2F)CC1N` (stereo unspecified): the MIC was found to be 0.031 µg/mL (≈ 0.079 µM).

Another data set deals with Staphylococcus epidermidis. As to the kind of experiment: In vitro antimicrobial activity against Staphylococcus epidermis 887E. It counts as functional.
Conditions: not given
Consider `NC1CN(c2c(F)cc3c(=O)c(C(=O)O)cn(C4CC4)c3c2F)C/C1=N\OCCF` (stereo unspecified), for which inhibition of growth (MIC) required 0.063 µg/mL (≈ 0.148 µM).

Take `CO/N=C1\CN(c2c(F)cc3c(=O)c(C(=O)O)cn(C4CC4)c3c2F)CC1N` (stereo unspecified): the MIC came out at 0.016 µg/mL (≈ 0.0408 µM).

The test system of another data set is Mus musculus. As to the kind of experiment: In vivo efficacy against systemic infection of Staphylococcus aureus giorgio in mouse. It counts as functional.
Conditions: not given
The molecule `CO/N=C1\CN(c2c(F)cc3c(=O)c(C(=O)O)cn(C4CC4)c3c2F)CC1N` (stereo unspecified) showed an ED50 of 0.87 mg/kg.

Tested on in the next data set: not listed separately
Nature of the data set: in vivo. Conditions: dog, plasma, po, 4 mg/kg.
The molecule `CO/N=C1\CN(c2c(F)cc3c(=O)c(C(=O)O)cn(C4CC4)c3c2F)CC1N` (stereo unspecified) gave an AUC of 12900 ng·h/mL.

The subject of another data set is Mus musculus. Nature of the data set: In vivo efficacy against systemic infection of Pseudomonas aeruginosa 1912E in mouse. It is filed as functional.
Conditions: not given
The molecule `CO/N=C1\CN(c2c(F)cc3c(=O)c(C(=O)O)cn(C4CC4)c3c2F)CC1N` (stereo unspecified) returned an ED50 of 9.69 mg/kg.

In another data set the test system is Acinetobacter calcoaceticus. As to the kind of experiment: In vitro antimicrobial activity against Acinetobacter calcoaceticus 15473. It counts as functional.
Conditions: not given
Turning to `NC1CN(c2c(F)cc3c(=O)c(C(=O)O)cn(C4CC4)c3c2F)C/C1=N\OCCF` (stereo unspecified), the MIC is 0.13 µg/mL (≈ 0.306 µM).

Regarding `CO/N=C1\CN(c2c(F)cc3c(=O)c(C(=O)O)cn(C4CC4)c3c2F)CC1N` (stereo unspecified), the MIC was 0.016 µg/mL (≈ 0.0408 µM).

A further data set deals with Escherichia coli. As to the kind of experiment: In vitro antimicrobial activity against Escherichia coli 10536. It counts as functional.
Conditions: not given
On to `NC1CN(c2c(F)cc3c(=O)c(C(=O)O)cn(C4CC4)c3c2F)C/C1=N\OCCF` (stereo unspecified), for which the minimal inhibitory concentration (MIC) worked out at 0.031 µg/mL (≈ 0.073 µM).

Molecule `CO/N=C1\CN(c2c(F)cc3c(=O)c(C(=O)O)cn(C4CC4)c3c2F)CC1N` (stereo unspecified) had an MIC of at most 0.008 µg/mL.
